Results as given in article PMC7961380, “A Systematic Study of the In Vitro Pharmacokinetics and Estimated Human In Vivo Clearance of Indole and Indazole-3-Carboxamide Synthetic Cannabinoid Receptor Agonists Detected on the Illicit Drug Market” (Molecules, 2021).
Values joined by “and” are separate entries in the source; they are usually repeats but may differ in a detail not shown here. Equal entries are not always repeated. Where two headings read alike, the source gives them in different places.

Tests used:
[1] = Plasma protein binding by equilibrium dialysis; assay type: in vitro ADME, human; conditions: for fraction unbound at 5 h, 10 µg mL^−1: human, pooled human plasma, pH 7.4, equilibrium dialysis 5 h, 37 °C
[2] = Metabolic stability, pooled human liver microsome incubations; conditions: for Predicted In Vivo Hepatic Clearance, CLH: from pHLM CLint, well-stirred model with plasma fu, Q 21 mL min^−1 kg^−1; for CLint scaled at 0.5 µM / half-life at 0.5 µM: human, microsomes; for CLint scaled at 0.5 µM: pH 7.4, Intrinsic clearance; for half-life at 0.5 µM: pH 7.4, T1/2 (min), pHLM 0.5 mg mL^−1, 0.5 µM, NADPH, 37 °C; for half-life at 0.5 µM / Microsomal Intrinsic Clearance, CLint micr: n ≥ 3 ± SD
[3] = Short-term plasma stability with and without esterase inhibitors; conditions: human, pH 7.4, Parent Compound Remaining (%), 3 h, 37 °C
[4] = Metabolic stability, pooled human cryopreserved hepatocyte incubations; conditions: human, hepatocytes; for CLint scaled at 0.5 µM: Intrinsic clearance, pHHeps, alternative hepatocyte cell density 99x10^6 hepatocytes per gram liver; for half-life at 0.5 µM: T1/2 (min), pHHeps 0.25 million cells mL^−1, 0.5 µM, 37 °C, n ≥ 3 ± SD
[5] = tested on: pooled human cryopreserved hepatocytes (pHHeps); experiment: as above; conditions: for Predicted In Vivo Hepatic Clearance, CLH: from pHHeps CLint, well-stirred model with plasma fu, Q 21 mL min^−1 kg^−1
[6] = 10 µg mL^−1, read-out: PPB (%) (converted)
[7] = plasma, read-out: Fraction Unbound (fu)
[8] = pHLM, alternative microsomal scaling factor 32 mg microsomal protein per gram liver
[9] = pHLM, alternative microsomal scaling factor 45 mg microsomal protein per gram liver
[10] = pHLM, scaling factor 32 mg microsomal protein per gram liver
[11] = pHLM, scaling factor 45 mg microsomal protein per gram liver
[12] = Esterase Inhibitors, pH 7.4, BNPP and PMSF 500 µM each
[13] = plasma, No Esterase Inhibitors, pH 7.4, pooled human plasma
[14] = pHHeps, 99x10^6 hepatocytes per gram liver

Row | Structure (SMILES) | fraction unbound at 5 h, 10 µg mL^−1 [1, 6] | fraction unbound at 5 h, 10 µg mL^−1 [1, 7] | Predicted In Vivo Hepatic Clearance, CLH [2] | Hepatic extraction ratio, EH ([2]; from pHLM incubations) | CLint scaled at 0.5 µM [2, 8] [mL/min/kg] | CLint scaled at 0.5 µM [2, 9] [mL/min/kg] | half-life at 0.5 µM [2] [min] | % parent compound remaining, Average ([2]; pHLM, 3 min) [%] | % parent compound remaining, Average ([2]; pHLM, 6 min) [%] | % parent compound remaining, Average ([2]; pHLM, 9 min) [%] | % parent compound remaining, Average ([2]; pHLM, 15 min) [%] | % parent compound remaining, Average ([2]; pHLM, 30 min) [%] | Microsomal Intrinsic Clearance, CLint micr ([2]; pHLM) | Hepatic extraction ratio, EH [2, 10] | Predicted in vivo hepatic clearance, CLH [2, 10] [mL/min/kg] | Predicted in vivo hepatic clearance, CLH [2, 11] [mL/min/kg] | remaining at 3 h, 5 µM [3, 12] [%] | remaining at 3 h, 5 µM [3, 13] [%] | CLint scaled at 0.5 µM [4] [mL/min/kg] | half-life at 0.5 µM [4] [min] | other results
1 | COC(=O)[C@@H](NC(=O)c1cn(CC2CCCCC2)c2ccccc12)C(C)C [(S)-AMB-CHMICA (9), methyl [1-(cyclohexylmethyl)-1H-indole-3-carbonyl]valinate] | 0.012 | 0.012 ± 0.0006 | 4.37 ± 0.68 mL/min/kg | 0.21 ± 0.032 | 282 | 397 | 4.1 ± 0.75 | 52.7 | 35.1 | 25.3 | 9.9 | 2.5 | 0.343 ± 0.069 mL min^−1 mg Microsomal Protein^−1 | 0.14 ± 0.024 | 2.91 ± 0.50 | 3.87 ± 0.62 | 90.5 ± 3.4 | 93.9 ± 9.3 | 935 ± 44.8 | 7.6 ± 0.35 | Hepatic extraction ratio, EH [2, 11]: 0.18 ± 0.030; Predicted In Vivo Hepatic Clearance, CLH [5]: 7.68 ± 0.22 mL/min/kg; Hepatic extraction ratio, EH ([5]; from pHHeps incubations): 0.37 ± 0.011; Hepatic extraction ratio, EH [5, 14]: 0.35 ± 0.011; Predicted in vivo hepatic clearance, CLH [5, 14]: 7.31 ± 0.23 mL/min/kg; % parent compound remaining, Average ([5]; pHHeps, 3 min): 65.0%; % parent compound remaining, Average ([5]; pHHeps, 6 min): 58.4%; % parent compound remaining, Average ([5]; pHHeps, 9 min): 43.3%; % parent compound remaining, Average ([5]; pHHeps, 15 min): 23.8%; % parent compound remaining, Average ([5]; pHHeps, 30 min): 8.7%; % parent compound remaining, Average ([5]; pHHeps, 45 min): 3.5%; % parent compound remaining, Average ([5]; pHHeps, 60 min): 1.5%
2 | C=CCCCn1cc(C(=O)N[C@H](C(=O)OC)C(C)C)c2ccccc21 [(S)-AMB-4en-PICA (7), methyl 3-methyl-2-[(1-pent-4-enylindole-3-carbonyl)amino] butanoate] | 0.053 | 0.053 ± 0.0037 | 9.29 ± 0.89 mL/min/kg | 0.44 ± 0.042 | 194 | 273 | 6 ± 1 | 67.6 | 49.5 | 36.3 | 18.0 | 3.0 | 0.236 ± 0.042 mL min^−1 mg Microsomal Protein^−1 | 0.33 ± 0.038 | 6.86 | 8.51 | 95.6 ± 6.8 | 92.6 ± 8.3 | 1120 | 6.9 ± 2.1 | Predicted In Vivo Hepatic Clearance, CLH [5]: 15.56 ± 1.24 mL/min/kg; Hepatic extraction ratio, EH ([5]; from pHHeps incubations): 0.74 ± 0.059; Hepatic extraction ratio, EH [5, 14]: 0.73 ± 0.061; Predicted in vivo hepatic clearance, CLH [5, 14]: 15.25 ± 1.28 mL/min/kg; % parent compound remaining, Average ([5]; pHHeps, 3 min): 68.4%; % parent compound remaining, Average ([5]; pHHeps, 6 min): 54.6%; % parent compound remaining, Average ([5]; pHHeps, 9 min): 33.2%; % parent compound remaining, Average ([5]; pHHeps, 15 min): 19.4%; % parent compound remaining, Average ([5]; pHHeps, 30 min): 6.5%; % parent compound remaining, Average ([5]; pHHeps, 45 min): 1.9%; % parent compound remaining, Average ([5]; pHHeps, 60 min): 0.6%
3 | C=CCCCn1nc(C(=O)N[C@@H](C(=O)OC)C(C)(C)C)c2ccccc21 [(R)-MDMB-4en-PINACA (5), methyl 3,3-dimethyl-2-[1-(pent-4-en-1-yl)-1H-indazole-3-carboxamido] butanoate] | 0.019 | 0.019 ± 0.0071 | 4.94 ± 0.39 mL/min/kg | 0.24 ± 0.019 | 208 | 292 | 5.5 ± 0.59 | 68.4 | 48.2 | 32.3 | 14.6 | 2.5 | 0.253 ± 0.026 mL min^−1 mg Microsomal Protein^−1 | 0.16 ± 0.014 | 3.32 | 4.38 ± 0.36 | 89.4 ± 3.4 | 87.2 ± 6.9 | 335 ± 61.6 | 22 ± 3.6 | Hepatic extraction ratio, EH [2, 11]: 0.21 ± 0.017; Predicted In Vivo Hepatic Clearance, CLH [5]: 5.16 ± 0.70 mL/min/kg; Hepatic extraction ratio, EH ([5]; from pHHeps incubations): 0.25 ± 0.033; Hepatic extraction ratio, EH [5, 14]: 0.23 ± 0.032; Predicted in vivo hepatic clearance, CLH [5, 14]: 4.86 ± 0.67 mL/min/kg; % parent compound remaining, Average ([5]; pHHeps, 3 min): 80.8%; % parent compound remaining, Average ([5]; pHHeps, 6 min): 77.7%; % parent compound remaining, Average ([5]; pHHeps, 9 min): 70.3%; % parent compound remaining, Average ([5]; pHHeps, 15 min): 58.1%; % parent compound remaining, Average ([5]; pHHeps, 30 min): 38.0%; % parent compound remaining, Average ([5]; pHHeps, 45 min): 26.6%; % parent compound remaining, Average ([5]; pHHeps, 60 min): 20.8%
4 | CC(C)[C@H](NC(=O)c1nn(Cc2ccc(F)cc2)c2ccccc12)C(N)=O [(S)-AB-FUBINACA (8), N-(1-amino-3-methyl-1-oxobutan-2-yl)-1-(4-fluorobenzyl)-1H-indazole-3-carboxamide] | 0.021 | 0.021 ± 0.0044 | 0.34 mL/min/kg and 0.34 ± 0.09 mL/min/kg | 0.02 and 0.02 ± 0.004 | 10 | 14.1 | 118 ± 28 | 87.3 | 87.3 | 85.0 | 84.2 | 79.6 | 0.012 ± 0.003 mL min^−1 mg Microsomal Protein^−1 | 0.01 ± 0.003 | 0.21 ± 0.05 | 0.29 ± 0.07 | 103 ± 2.5 | 104 ± 1.1 | 101 ± 32 | 76 ± 24 | Hepatic extraction ratio, EH [2, 11]: 0.01 ± 0.004; Predicted In Vivo Hepatic Clearance, CLH [5]: 2.06 ± 0.58 mL/min/kg; Hepatic extraction ratio, EH ([5]; from pHHeps incubations): 0.10 ± 0.028; Hepatic extraction ratio, EH [5, 14]: 0.09 ± 0.026; Predicted in vivo hepatic clearance, CLH [5, 14]: 1.92 ± 0.55 mL/min/kg; % parent compound remaining, Average ([5]; pHHeps, 3 min): 93.3%; % parent compound remaining, Average ([5]; pHHeps, 6 min): 86.0%; % parent compound remaining, Average ([5]; pHHeps, 9 min): 85.5%; % parent compound remaining, Average ([5]; pHHeps, 15 min): 85.4%; % parent compound remaining, Average ([5]; pHHeps, 30 min): 72.4%; % parent compound remaining, Average ([5]; pHHeps, 45 min): 69.5%; % parent compound remaining, Average ([5]; pHHeps, 60 min): 66.6%
5 | C=CCCCn1cc(C(=O)N[C@@H](C(=O)OC)C(C)C)c2ccccc21 [(R)-AMB-4en-PICA (7), methyl 3-methyl-2-[(1-pent-4-enylindole-3-carbonyl)amino] butanoate] | 0.059 | 0.059 ± 0.001 | 11.8 ± 0.97 mL/min/kg | 0.56 ± 0.046 | 286 | 402 | 4.1 ± 0.75 | 56.4 | 36.2 | 22.6 | 9.6 | 1.6 | 0.348 ± 0.068 mL min^−1 mg Microsomal Protein^−1 | 0.44 ± 0.047 | 9.28 | 11.05 | 95.5 ± 2.9 | 91.7 ± 1.9 | 1470 | 5.5 ± 2.1 | recovery (total peak area in dialysed samples vs 4 °C samples) ([1]; PPB thermal stability control, 5 h): 95 ± 2.0%; Predicted In Vivo Hepatic Clearance, CLH [5]: 16.79 ± 1.33 mL/min/kg; Hepatic extraction ratio, EH ([5]; from pHHeps incubations): 0.80 ± 0.063; Hepatic extraction ratio, EH [5, 14]: 0.79 ± 0.066; Predicted in vivo hepatic clearance, CLH [5, 14]: 16.53 ± 1.39 mL/min/kg; % parent compound remaining, Average ([5]; pHHeps, 3 min): 57.7%; % parent compound remaining, Average ([5]; pHHeps, 6 min): 46.1%; % parent compound remaining, Average ([5]; pHHeps, 9 min): 25.6%; % parent compound remaining, Average ([5]; pHHeps, 15 min): 13.7%; % parent compound remaining, Average ([5]; pHHeps, 30 min): 4.6%; % parent compound remaining, Average ([5]; pHHeps, 45 min): 1.6%; % parent compound remaining, Average ([5]; pHHeps, 60 min): 0.6%
